Measurements: patent US7351407B2, “Agents which regulate, inhibit, or modulate the activity and/or expression of connective tissue growth factor (CTGF) as a unique means to both lower intraocular pressure and treat glaucomatous retinopathies/optic neuropathies” (Alcon, Inc., priority 2002, dated 2008)

Legend:
CTGF gene expression = assay: CTGF QPCR assay for inhibition of basal and TGFβ2-induced CTGF gene expression in cultured human TM cells; format: cell-based; settings: for inhibition of basal CTGF gene expression (mRNA levels) / inhibition of TGFβ2-induced CTGF gene expression (mRNA levels): cultured human normal or glaucomatous TM cells, QPCR; for inhibitory activity on CTGF expression: human TM cells, basal or TGFβ2-induced not specified; for inhibition of TGFβ2-induced CTGF gene expression (mRNA levels): TGFβ2-stimulated
Excerpt: FIG. 3. Effect of GSK-3 inhibition on CTGF gene expression in glaucomatous TM cells.
FIG. 4. Effect of CDK2 inhibition on CTGF gene expression in glaucomatous TM cells. To determine the effects of CDK inhibition on CTGF gene expression, we measured the effects of the known CDK2 inhibitor GW-8510 (Davis, et al. 2001) on both basal and TGFβ2-stimulated CTGF mRNA expression in a glaucomatous TM cell line (SGTM2697) using QPCR analysis.
The inventors have tested several different compound classes in a CTGF QPCR assay for inhibition of basal and TGFβ2-induced CTGF gene expression in cultured human normal or glaucomatous TM cells. Small molecule inhibitors were targeted at the inhibition of GSK-3, CDK, NAALADase, Protein Kinase C, MEK, p38MAPK, ROCK, VEGF, geranylgeranyl transferase and AGE. Small molecule agonists of PPAR, 5-HT, and P2X7 were also tested for activity. Compounds which target extracellular signal-regulated kinase 1 or 2 (ERK1 or ERK2) may also play a role in basal or TGFβ2-induced CTGF gene expression.
Total RNA was isolated from TM cells using Trizol® reagent according to the manufacturer's instructions (Life Technologies). First strand cDNA was generated from 1 ug of total RNA using random hexamers and TaqMan® Reverse Transcription reagents according to the manufacturer's instructions (PE Biosystems, Foster City, Calif.). The 100 ul reaction was subsequently diluted 20-fold to achieve an effective cDNA concentration of 0.5 ng/ul.
Differential expression of CTGF was verified by quantitative real-time RT-PCR (QPCR) using an ABI Prism® 7700 Sequence Detection System (Applied Biosystems). essentially as described (Shepard et al., IOVS 2001, 42:3173). Primers for CTGF amplification were designed using Primer Express software (Applied Biosystems) and anneal to adjacent exons of Genbank accession # NM_001901.1 ([…], nts 1667-1689 and […], nts 1723-1742) and generate a 76-bp amplicon. Amplification of CTGF was normalized to 18S ribosomal RNA expression using primers designed to the 18S rRNA gene (GenBank accession #X03205 […], nts 1680-1700 and […], nts 1730-1749) which generates a 69-bp amplicon. The SYBR® Green I double-stranded DNA binding dye chemistry (Applied Biosystems) was used to amplify CTGF or 18S cDNA. Specificity of the CTGF and 18S primer pairs was assessed from the PCR product by a combination of DNA sequencing, agarose gel analysis and dissociation curve analysis using the ABI Prism 770 SDS Dissociation Curve software (Applied Biosystems). CTGF or 18S rRNA reactions consisted of 1×SYBR Green PCR Master Mix (Applied Biosystems), 50 nM primer concentrations and 2.5 ng cDNA in a final volume of 50 ul. Thermal cycling conditions consisted of 50° C., 2 min, 95° C. 10 min followed by 40 cycles at 95° C., 15 sec, 60° C., 1 min. Quantification of relative RNA concentrations was done using the relative standard curve method as described in PE Biosystems User Bulletin #2 (http://docs.appliedbiosystems.com/pebiodocs/04303859.pdf). Data analysis was performed with SDS software version 1.9.1 (Applied Biosystems) and MS Excel 97 (Microsoft). Plasmid DNA containing target sequence for CTGF or 18S was used for generating the standard curve. QPCR data are presented as mean±SD.

CDK1 = CDK1 (Homo sapiens, UniProt P06493); settings: cited from earlier work
Sequence of CDK1 (P06493 whole entry, species assumed): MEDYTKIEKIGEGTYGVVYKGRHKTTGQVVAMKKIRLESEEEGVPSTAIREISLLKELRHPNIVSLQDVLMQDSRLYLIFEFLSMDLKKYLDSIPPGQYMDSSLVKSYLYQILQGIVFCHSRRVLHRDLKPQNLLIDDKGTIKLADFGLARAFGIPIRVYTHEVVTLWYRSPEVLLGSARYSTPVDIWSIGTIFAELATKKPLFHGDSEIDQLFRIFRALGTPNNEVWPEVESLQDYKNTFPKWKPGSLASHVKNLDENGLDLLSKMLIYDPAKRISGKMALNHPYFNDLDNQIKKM
Sequence of CDK1 (P14635 whole entry partner, species assumed): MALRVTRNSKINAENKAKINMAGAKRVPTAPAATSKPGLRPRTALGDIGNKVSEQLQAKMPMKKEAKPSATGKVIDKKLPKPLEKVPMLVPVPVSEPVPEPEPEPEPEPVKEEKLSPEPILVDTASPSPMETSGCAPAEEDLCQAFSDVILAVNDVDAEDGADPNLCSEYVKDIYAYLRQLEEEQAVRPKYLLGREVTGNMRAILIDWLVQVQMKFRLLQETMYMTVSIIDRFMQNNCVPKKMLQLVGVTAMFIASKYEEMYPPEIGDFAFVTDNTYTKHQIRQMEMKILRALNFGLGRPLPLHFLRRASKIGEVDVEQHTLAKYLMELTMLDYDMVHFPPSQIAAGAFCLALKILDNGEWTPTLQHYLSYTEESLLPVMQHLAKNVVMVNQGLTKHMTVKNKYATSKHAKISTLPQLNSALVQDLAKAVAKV

CDK4 = CDK4 (Homo sapiens, UniProt P11802); settings: cited from earlier work
Sequence of CDK4 (P11802 whole entry, species assumed): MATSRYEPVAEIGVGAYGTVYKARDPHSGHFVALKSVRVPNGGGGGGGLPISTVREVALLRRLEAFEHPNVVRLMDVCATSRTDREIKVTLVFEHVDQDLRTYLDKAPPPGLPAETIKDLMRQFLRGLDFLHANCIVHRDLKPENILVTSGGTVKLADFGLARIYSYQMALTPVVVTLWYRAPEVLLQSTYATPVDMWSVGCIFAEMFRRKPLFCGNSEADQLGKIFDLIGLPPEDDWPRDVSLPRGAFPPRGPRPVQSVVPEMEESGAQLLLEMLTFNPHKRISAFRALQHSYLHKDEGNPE
Sequence of CDK4 (P24385 whole entry partner, species assumed): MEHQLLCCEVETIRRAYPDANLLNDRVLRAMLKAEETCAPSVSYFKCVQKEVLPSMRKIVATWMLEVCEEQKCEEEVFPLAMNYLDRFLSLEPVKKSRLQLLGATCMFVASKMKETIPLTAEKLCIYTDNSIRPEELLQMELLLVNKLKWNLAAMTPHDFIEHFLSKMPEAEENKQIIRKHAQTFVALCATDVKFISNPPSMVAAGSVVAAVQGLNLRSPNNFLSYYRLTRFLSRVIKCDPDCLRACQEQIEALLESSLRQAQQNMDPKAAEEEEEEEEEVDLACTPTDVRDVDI

SMILES | inhibition of basal CTGF gene expression (mRNA levels) (CTGF gene expression) | also measured
O=C1Cc2c([nH]c3ccc(Br)cc23)-c2ccccc2N1 [kenpaullone] | inhibit basal | 
CCCCC[C@H](O)/C=C/C=C\C/C=C\C/C=C\CCCC(=O)O [15(S)HETE] | inhibit basal | 
CC[C@H](CO)Nc1nc(NCc2ccccc2)c2ncn(C(C)C)c2n1 [roscovitine] |  | inhibitory activity on CTGF expression (CTGF gene expression): inhibitory activity
O=C1Cc2c([nH]c3ccc([N+](=O)[O-])cc23)-c2ccccc2N1 [alsterpaullone] | inhibit basal | 
Cn1cc(C2=C(c3ccc(Cl)cc3Cl)C(=O)NC2=O)c2ccccc21 [SB-216763] | inhibit | inhibition of TGFβ2-induced CTGF gene expression (mRNA levels) (CTGF gene expression): inhibit
CC(C)[C@H](CO)Nc1nc(Nc2cccc(Cl)c2)c2ncn(C(C)C)c2n1 [purvalanol A] |  | inhibitory activity on CTGF expression (CTGF gene expression): inhibitory activity
N#Cc1ccc2[nH]c3c(c2c1)CC(=O)Nc1ccccc1-3 [9-cyanopaullone] | inhibit basal | 
O=C1Nc2ccc3ncsc3c2/C1=C/Nc1ccc(S(=O)(=O)Nc2ccccn2)cc1 [GW-8510] | inhibit | IC50 (CDK1): 110 nM; IC50 (CDK4): 130 nM; inhibition of TGFβ2-induced CTGF gene expression (mRNA levels) (CTGF gene expression): inhibit
